Blank lines part the entries; values can stand above or below the compound they belong to. Active and inactive are the calls of the source. The calls are words filed in the database; no cut-off is given here.
Assays:
Exportin-1 [1] = biological target: T1, Exportin-1 (Homo sapiens, UniProt O14980); test: Inhibition of nuclear CRM1 (unknown origin) by cell based assay
Exportin-1 [2] = biological target: T1, Exportin-1; test: Reversible inhibition of CRM1 in human 293T cells assessed as increase in translocation of NES-GFP to […] at 4 uM incubated for 2 hrs by confocal laser scanning microscopy; assay type: cell-based
Mus musculus [3] = test: Anti-inflammatory activity against DSS-induced ulcerative colitis C57BL/6J mouse model assessed as reduction in colon swelling at 3 and 30 mg/kg, po administered for 7 days and measured on day 7 by […] and eosin staining based microscopic analysis; assay type: functional, organism-based
Mus musculus [4] = test: Anti-inflammatory activity against DSS-induced ulcerative colitis C57BL/6J mouse model assessed as re-epithelialization of colon at 3 and 30 mg/kg, po administered for 7 days and measured on day 7 by […] and eosin staining based microscopic analysis; assay type: functional, organism-based
Mus musculus [5] = test: Anti-inflammatory activity against DSS-induced ulcerative colitis C57BL/6J mouse model assessed as reduction in colon inflammation at 3 and 30 mg/kg, po administered for 7 days and measured on day 7 by […] and eosin staining based microscopic analysis; assay type: functional, organism-based
Mus musculus [6] = test: Anti-inflammatory activity against DSS-induced ulcerative colitis C57BL/6J mouse model assessed as preservation of colon mucosal architecture at 3 and 30 mg/kg, po administered for 7 days and measured on day 7 by […] and eosin staining based microscopic analysis; assay type: functional, organism-based
Mus musculus [7] = test: Anti-inflammatory activity against DSS-induced ulcerative colitis C57BL/6J mouse model assessed as reduction in colon ulceration at 3 and 30 mg/kg, po administered for 7 days and measured on day 7 by […] and eosin staining based microscopic analysis; assay type: functional, organism-based

T1 sequence (O14980 whole entry): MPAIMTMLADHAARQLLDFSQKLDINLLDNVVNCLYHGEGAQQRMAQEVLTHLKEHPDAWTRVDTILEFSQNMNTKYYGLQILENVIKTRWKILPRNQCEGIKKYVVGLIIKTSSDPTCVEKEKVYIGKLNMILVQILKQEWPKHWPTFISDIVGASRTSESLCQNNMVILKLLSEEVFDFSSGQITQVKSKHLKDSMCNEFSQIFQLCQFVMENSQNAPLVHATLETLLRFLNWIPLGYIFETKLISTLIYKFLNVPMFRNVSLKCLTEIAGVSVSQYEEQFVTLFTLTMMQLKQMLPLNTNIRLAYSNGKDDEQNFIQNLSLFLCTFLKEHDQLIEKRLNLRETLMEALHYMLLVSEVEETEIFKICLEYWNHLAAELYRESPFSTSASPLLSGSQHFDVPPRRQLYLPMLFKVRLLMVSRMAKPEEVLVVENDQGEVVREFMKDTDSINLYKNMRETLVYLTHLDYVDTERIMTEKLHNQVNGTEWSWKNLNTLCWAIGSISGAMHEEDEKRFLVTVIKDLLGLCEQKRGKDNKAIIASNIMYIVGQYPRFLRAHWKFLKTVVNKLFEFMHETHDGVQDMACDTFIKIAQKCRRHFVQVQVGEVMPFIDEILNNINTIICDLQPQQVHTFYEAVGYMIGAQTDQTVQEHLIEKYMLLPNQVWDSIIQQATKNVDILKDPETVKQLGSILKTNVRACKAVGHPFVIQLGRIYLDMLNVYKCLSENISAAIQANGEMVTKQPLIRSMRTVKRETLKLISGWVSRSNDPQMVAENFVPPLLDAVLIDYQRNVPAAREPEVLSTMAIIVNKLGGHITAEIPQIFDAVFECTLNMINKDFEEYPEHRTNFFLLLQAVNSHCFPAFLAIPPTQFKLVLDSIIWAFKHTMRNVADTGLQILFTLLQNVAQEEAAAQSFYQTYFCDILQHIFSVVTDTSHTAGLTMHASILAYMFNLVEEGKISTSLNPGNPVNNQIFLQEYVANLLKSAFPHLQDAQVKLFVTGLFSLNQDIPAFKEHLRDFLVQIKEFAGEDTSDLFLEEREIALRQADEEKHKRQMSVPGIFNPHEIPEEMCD

SMILES: [O-][S+](/C=C/CCN=C=S)c1ccccc1 (configuration not stated)
IC50 (Exportin-1 [1]): 1.5 µM

inhibition (Exportin-1 [2]): inactive
SMILES: O=C(/C=C\n1cnc(-c2cc(C(F)(F)F)cc(C(F)(F)F)c2)n1)NNc1cnccn1

SMILES: Nc1ccc(O)c(C(=O)O)c1
Activity (Mus musculus [3]): inactive | Activity (Mus musculus [4]): inactive | Activity (Mus musculus [5]): inactive | Activity (Mus musculus [6]): inactive | Activity (Mus musculus [7]): inactive

Reference: ChEMBL document CHEMBL4402590, “Small-Molecule Antagonist Targeting Exportin-1 via Rational Structure-Based Discovery” (J Med Chem, 2020)
